In this test the test system is Klebsiella pneumoniae (strains 34 and 115). As to conditions: for ASIn (antibiotic susceptibility index), single replicates: imipenem 20× breakpoint (80 μg/mL), ASI20, 15 μM PMS, 0.1 OD600. Here is the method: For initial quality control, cyclic voltammetry scan was recorded from 0.5 V to −0.5 V then back to 0.5 V using the potentiostat 13 configuration. The potentiostat controls the working electrode voltage relative to the reference electrode.
For antibiotic susceptibility experiments, the working electrode 6 was controlled at 0 VAg/AgCl. The current can also be measured and analyzed for determining resistance/susceptibility of pathogens to drugs (e.g., antibiotics) using other devices such as a multiplexer or any interface instrument that can receive one or more data inputs and forward it to an output for analysis and feedback. In particular, such one or more data inputs can be directed to a processor, signal processor, computer-based system, etc. and thereafter/correspondingly any such interface instrument can receive instructions from, such processing instruments as better detailed in the description for the embodiment of FIG. 14 below. It is also to be noted that any induced currents undergo a decision methodology that can be interpreted by such a configured processor, signal processor, computer-based system, etc. for aiding in the determination of antibiotic susceptibility/resistance, such as, the methodology better detailed in the description of FIG. 6 below.
Turning back to the discussion for FIG. 1B but also FIG. 1A, an initial baseline was established in the MH media, PMS, and antibiotic mixture for 50-60 min before inoculating the electrochemical cell with a bacteria cell 2. On placing the bacteria cell 2 (again see FIG. 1A) into the electrochemical cell 10, the bacteria cell 2 undergoes metabolic reactions and generates electrons 4 through metabolic processes, as was generally described above. […]
Tests disclosed in the example embodiments herein for the purpose of illustration were conducted with an inoculum of 0.1 OD600. A cell density equating to 0.1 OD600 was determined for each species by serial dilution. […] The colony forming units per mL (CFU/mL) were quantified using a drop plate method as known to those skilled in the art. […]

Values joined by “and” are separate entries in the source; they are usually repeats but may differ in a detail not shown here. Identical values can stand only once. Like-named read-outs stand apart in the source and are kept apart here.

In the case of `C[C@@H](O)[C@H]1C(=O)N2C(C(=O)O)=C(SCCN=CN)C[C@H]12` [Imipenem, imipenem], the “ASIn (antibiotic susceptibility index), single replicates” value runs as follows: (strain 34 (susceptible)) 0.56 and 0.88 and 0.67 and 0.58; (strain 115 (resistant)) 0.32 and 0.47 and 0.18 and 0.17. Also, the “average ASI20 (±SE)” value (strain 115 (resistant), imipenem 20× (80 μg/mL)) worked out at 0.28±0.08.

These data come from patent publication US20240426776A1, “RAPID DIFFERENTIATION OF ANTIBIOTIC-SUSCEPTIBLE AND -RESISTANT BACTERIA THROUGH MEDIATED EXTRACELLULAR ELECTRON TRANSFER” (priority 2021, published 2024).
